Reference: patent US8222300B2, “Methods of treating parkinson's disease using halogenated volatile compounds” (Mouse Specifics, Inc., priority 2007, dated 2012)

Test system: adult female CD-1 mice
Assay type: in vivo
Experimental: Isoflurane is a halogenated inhalation anesthetic and is routinely used in laboratory animals for its anesthetic properties. In this experiment, posture and gait in mice after brief isoflurane anesthesia was investigated.
Ventral plane videography was used to image 4 adult female CD-1 mice walking 25 cm/s on a transparent treadmill belt just prior to 5 minutes of isoflurane (2.5% isoflurane final concentration in 100% oxygen) anesthesia. Gait analysis was again performed at 25 cm/s 1, 15, 30 and 60 minutes after the animals regained their righting reflex. Mice were placed in a chamber and delivered the isoflurane via a system which vaporized the isoflurane and mixed it with the oxygen using an anesthesia system (EZ Anesthesia™, Euthanex).
When the mice first emerged from the anesthesia (animals were moved from an anesthesia box to room air, including oxygen and CO2), they were groggy for about 2-40 seconds. Following the brief groggy period, a supranormal function became apparent as their gait (including stride length, stance width, and swing duration) was improved relative to prior to the administration of the isoflurane.

[1] = following cessation of anesthesia

Duration of groggy period on emergence from anesthesia (mouse, in vivo): 2 to 40 s
Compound: FC(F)OC(Cl)C(F)(F)F (stereo not shown) [isoflurane, 2-chloro-2-(difluoromethoxy)-1,1,1-trifluoro-ethane]
Increase of swing duration compared to baseline (1 minute after recovery): ~50%
Stride length (1 minute after recovery from 5 minutes of 2.5% isoflurane in 100% oxygen, treadmill 25 cm/s, baseline 6.3±0.1 cm, P<0.05): 7.6±0.2 cm
Stance width variability (1 minute after recovery from isoflurane, versus baseline): lower
Swing duration (1 minute after recovery, baseline 77±3 ms, P<0.05): 103 ± 3 ms
Propulsion duration of the hind limbs (1 minute after recovery, baseline 128±5 ms, P<0.05): 167 ± 6 ms
Stepping frequency (1 minute after recovery, treadmill 25 cm/s, baseline 4.1±0.1 Hz, P<0.05): 3.3±0.1 Hz
Persistence of some supranormal gait characteristics [1]: ~30 min
Time for all gait metrics to return to baseline [1]: ≤ 60 min
Increase in stride length (some mice emerging from isoflurane anesthesia): about 25%
